pIC50: −log10 of the molar value. Where two headings read alike, the source gives them in different places. One block for each molecule: values may come before it.
Experiments:
[1] = test system: NCI-H460 Human Non-small Cell Lung Carcinoma; assay: Human tumor cell CFU assay (Test B); format: cell-based; details: colony formation, continuous exposure 7-9 days; for pIC50: read-out: IC50 Values (95% Lower and Upper Confidence Intervals); for IC90: read-out: IC90 Values (95% Lower and Upper Confidence Intervals)
Description: (§1) For human tumor cell CFU assays, the cell lines which grow as monolayers, MDA-MB-231, HCT116, HT29, NCI-H460, KB3-1 and KBV-1 were grown in RPMI medium (Invitrogen/Gibco, Grand Island, N.Y.) supplemented with 5% fetal bovine serum (Invitrogen/Gibco, Grand Island, NY). The RPMI-8226 cell line grows in suspension.
(§2) For experiments, human tumor cells (1 103) were plated in 6-well plates in medium supplemented with 5% or 10% fetal bovine serum. The compounds were tested in concentrations over the range from 0.01 to 100 nanomolar in half-log intervals covering […] along with untreated control wells. In later experiments some cases the concentration ranges were refined to focus on the region of interest in the response curves. Each compound concentration was tested in duplicate wells. Cultures were exposed to the compounds continuously for 7-9 days at 37° C. in a humidified atmosphere of 5% carbon dioxide balance air. Each experiment was performed three independent times. Colonies were defined as clusters containing 30 or more cells.
(§3) For the monolayer cultures, colonies were visualized by staining with a preformulated crystal violet solution (Fisher Cat #291-472) which contained 0.41% crystal violet, 12% ethanol balance deionized water. To visualize the colonies, the medium was removed by aspiration; the monolayer was rinsed once with phosphate buffered saline which was removed by aspiration. Three drops of crystal violet solution was added to each well and the 6-well plate was rotated so that the crystal violet solution covered the surface area of each well. After 5 minutes exposure time, the wells were rinsed twice with phosphate buffered saline and the colonies were visible.
(§4) The values were expressed as the mean values with lower and upper 95% confidence intervals in nanomolar concentrations.

[2] = test system: KB-V1 MDR1+ KB3-1 Subline; assay: Human tumor cell CFU assay (Test B); format: cell-based; details: colony formation, continuous exposure 7-9 days
Description: as §1, §2, §3, §4

[3] = test system: KBH5.0 BCRP+ KB3-1 Subline; assay: Human tumor cell CFU assay (Test B); format: cell-based; details: colony formation, continuous exposure 7-9 days; for pIC50: read-out: IC50 Values (95% Lower and Upper Confidence Intervals)
Description: as §1, §2, §3, §4

[4] = test system: HT29 Human Colon Carcinoma; assay: Human tumor cell CFU assay (Test B); format: cell-based; details: colony formation, continuous exposure 7-9 days; for pIC50: read-out: IC50 Values (95% Lower and Upper Confidence Intervals); for IC90: read-out: IC90 Values (95% Lower and Upper Confidence Intervals)
Description: as §1, §2, §3, §4

[5] = test system: MDA-MB-231 Human Breast Carcinoma; assay: Human tumor cell CFU assay (Test B); format: cell-based; details: colony formation, continuous exposure 7-9 days; for pIC50: read-out: IC50 Values (95% Lower and Upper Confidence Intervals); for IC90: read-out: IC90 Values (95% Lower and Upper Confidence Intervals)
Description: as §1, §2, §3, §4

[6] = test system: HCT116 Human Colon Carcinoma; assay: Human tumor cell CFU assay (Test B); format: cell-based; details: colony formation, continuous exposure 7-9 days; for pIC50: read-out: IC50 Values (95% Lower and Upper Confidence Intervals); for IC90: read-out: IC90 Values (95% Lower and Upper Confidence Intervals)
Description: as §1, §2, §3, §4

[7] = test system: KB3-1 HeLa Human Cervical Carcinoma; assay: Human tumor cell CFU assay (Test B); format: cell-based; details: colony formation, continuous exposure 7-9 days; for IC90: read-out: IC90 Values (95% Lower and Upper Confidence Intervals)
Description: as §1, §2, §3, §4

[8] = test system: RPMI-8226 Human Multiple Myeloma; assay: Human tumor cell CFU assay (Test B); format: cell-based; details: colony formation in agar, continuous exposure 7-9 days
Description: as §1
For human tumor cell CFU assays, RPMI-8226 cells were grown in 0.35% agar in DMEM-F12 medium supplemented with 10% fetal bovine serum over a base layer of 0.5% agar in DMEM-F12 medium supplemented with 10% fetal bovine serum
as §2, §4

[9] = test system: NCI-H460 human non-small cell lung carcinoma xenograft; assay: Compound 2 citrate salt vs. NCI-H460 xenograft model (pemetrexed, topotecan, cisplatin controls); details: qd×5
[10] = test system: MDA-MB-231 human breast tumor xenograft; details: qd×5

pIC50 ([1]; Homo sapiens, NCI-H460): 7.74
IC90 ([1]; Homo sapiens, NCI-H460): 52.5 nM
pIC50 ([2]; Homo sapiens): 7.12
IC90 ([2]; Homo sapiens): 257 nM
IC90 ([3]; Homo sapiens, KB 3-1): 115 nM
pIC50 ([3]; Homo sapiens, KB 3-1): 7.49
pIC50 ([4]; Homo sapiens, HT-29): 8.54
IC90 ([4]; Homo sapiens, HT-29): 11.2 nM
pIC50 ([5]; Homo sapiens, MDA-MB-231): 8.25
IC90 ([5]; Homo sapiens, MDA-MB-231): 19.5 nM
pIC50 ([6]; Homo sapiens, HCT-116): 8.07
IC90 ([6]; Homo sapiens, HCT-116): 26.3 nM
pIC50 ([7]; Homo sapiens): 7.49
IC90 ([7]; Homo sapiens): 107 nM
pIC50 ([8]; Homo sapiens, RPMI-8226): 7.90
IC90 ([8]; Homo sapiens, RPMI-8226): 43.2 nM
Compound: CC[C@@]1(O)C(=O)OCc2c1cc1n(c2=O)Cc2cc3c(CN(C)C)c(O)ccc3nc2-1 [Topotecan, reference compound]
body weight loss ([9]; 2 and 2.5 mg/kg/day IP): > 30%

melting point: 221 to 223 °C (dec.)
Compound: CCN(CC)CCn1c(=O)c2cc(OC)c(OC)cc2c2cnc3cc4c(cc3c21)OCO4 [Example 19, 8,9-Dimethoxy-2,3-methylenedioxy-5-[2-(N,N-diethylamino)ethyl]-5H-dibenzo[c,h]1,6-naphthyridin-6-one]

melting point: 153 to 154 °C
Compound: COc1cc2c(cc1OC)-c1cnc3cc4c(cc3c1N(C(C)CN(C)C)C2)OCO4 (stereo not shown) [Example 18, 8,9-Dimethoxy-2,3-methylenedioxy-5-[2-(N,N-dimethylamino)-1-methylethyl]-5,6-dihydro-dibenzo[c,h]1,6-naphthyridine]

melting point: 235 °C
Compound: COc1cc2c(=O)n(CCOCCO)c3c4cc5c(cc4ncc3c2cc1OC)OCO5 [Example 14, 8,9-Dimethoxy-2,3-methylenedioxy-5-[2-(2-hydroxyethoxy)ethyl]-5H-dibenzo[c,h]1,6-naphthyridin-6-one]

melting point: 285 to 286 °C
Compound: COc1cc2c(=O)n(CCO)c3c4cc5c(cc4ncc3c2cc1OC)OCO5 [Example 13, 8,9-Dimethoxy-2,3-methylenedioxy-5-[2-(hydroxy)ethyl]-5H-dibenzo[c,h]1,6-naphthyridin-6-one]

melting point: 271 to 273 °C (dec.)
Compound: COc1cc2c(cc1OC)-c1cnc3cc4c(cc3c1N(CCN(C)C)C2)OCO4 [Example 17, 8,9-Dimethoxy-2,3-methylenedioxy-5-[2-(N,N-dimethylamino)ethyl]-5,6-dihydro-dibenzo[c,h]1,6-naphthyridine]

Continued, molecule first:

Compound: COc1cc2c(=O)n(CCN3CCCCC3)c3c4cc5c(cc4nnc3c2cc1OC)OCO5 [Example 6, 2,3-Dimethoxy-8,9-methylenedioxy-11-[2-(piperidin-1-yl)ethyl]-11H-5,6,11-triaza-chrysen-12-one]
melting point: 294 to 295 °C

Compound: CCc1c2c(nc3ccc(O)cc13)-c1cc3c(c(=O)n1C2)COC(=O)[C@]3(O)CC [SN-38, 7-ethyl-10-hydroxyl-camptothecin, reference compound]
pIC50 [1]: 8.33
IC90 [1]: 13.3 nM
pIC50 [2]: 7.82
IC90 [2]: 55 nM
IC90 [3]: 18.8 nM
pIC50 [3]: 8.21
pIC50 [4]: 9.30
IC90 [4]: 1.8 nM
pIC50 [5]: 9.15
IC90 [5]: 2 nM
pIC50 [6]: 8.57
IC90 [6]: 8.4 nM
pIC50 [7]: 8.28
IC90 [7]: 19.1 nM
pIC50 [8]: 9.05
IC90 [8]: 3 nM

Compound: COc1cc2c(=O)n(CCN(C)C(C)C)c3c4cc5c(cc4ncc3c2cc1OC)OCO5 [Compound 4]
pIC50 ([1]; Homo sapiens, NCI-H460): 8.47
IC90 ([1]; Homo sapiens, NCI-H460): 11 nM
pIC50 ([2]; Homo sapiens): 8.85
IC90 ([2]; Homo sapiens): 6.9 nM
IC90 ([3]; Homo sapiens, KB 3-1): 6 nM
pIC50 ([3]; Homo sapiens, KB 3-1): 8.89
pIC50 ([4]; Homo sapiens, HT-29): 9.30
IC90 ([4]; Homo sapiens, HT-29): 1.9 nM
pIC50 ([5]; Homo sapiens, MDA-MB-231): 9.52
IC90 ([5]; Homo sapiens, MDA-MB-231): 1 nM
pIC50 ([6]; Homo sapiens, HCT-116): 8.92
IC90 ([6]; Homo sapiens, HCT-116): 4.4 nM
pIC50 ([7]; Homo sapiens): 9.00
IC90 ([7]; Homo sapiens): 4 nM
pIC50 ([8]; Homo sapiens, RPMI-8226): 9.40
IC90 ([8]; Homo sapiens, RPMI-8226): 1.5 nM

Compound: Nc1nc2[nH]cc(CCc3ccc(C(=O)N[C@@H](CCC(=O)O)C(=O)O)cc3)c2c(=O)[nH]1 [Pemetrexed, reference compound]
antitumor activity ([9]; 100 and 150 mg/kg/day IP): not considered active
body weight loss ([9]; 100 and 150 mg/kg/day IP): ≤ 20%

Compound: O=C(O)C(=O)O.[NH-][C@@H]1CCCC[C@H]1[NH-].[Pt+2] [Oxaliplatin, reference compound]
delay in tumor growth ([10]; 5 and 6.5 mg/kg/day IP): 13 days
tolerability ([10]; 5 and 6.5 mg/kg/day IP): well tolerated
TGI (T/C) ([10]; both dosages, 5 and 6.5 mg/kg/day IP): 45.1-47.6%

Compound: COc1cc2c(=O)n(CCN3CCCC3)c3c4cc5c(cc4ncc3c2cc1OC)OCO5 [Example 9, 8,9-Dimethoxy-2,3-methylenedioxy-5-[2-(pyrrolidin-1-yl)ethyl]-5H-dibenzo[c,h]1,6-naphthyridin-6-one]
melting point: 255 to 257 °C (dec.)

Compound: COc1cccc2c1C(=O)c1c(O)c3c(c(O)c1C2=O)C[C@@](O)(C(=O)CO)C[C@@H]3O[C@H]1C[C@H](N)[C@H](O)[C@H](C)O1 [Doxorubicin, reference compound]
toxic deaths ([10]; both dosages, 2.5 and 3 mg/kg/day IP): there were toxic deaths

Compound: COc1cc2c(=O)n(CCN3CCCC3)c3c4cc5c(cc4nnc3c2cc1OC)OCO5 [Example 5, 2,3-Dimethoxy-8,9-methylenedioxy-11-[2-(pyrrolidin-1-yl)ethyl]-11H-5,6,11-triaza-chrysen-12-one]
melting point: 229 °C

Compound: COc1cc2c(C(=O)NCC(C)(C)N(C)C)cc3c4cc5c(cc4ncc3c2cc1OC)OCO5 [Compound 3]
pIC50 ([1]; Homo sapiens, NCI-H460): 9.05
IC90 ([1]; Homo sapiens, NCI-H460): 3 nM
pIC50 ([2]; Homo sapiens): 9.22
IC90 ([2]; Homo sapiens): 2.8 nM
IC90 ([3]; Homo sapiens, KB 3-1): 2.3 nM
pIC50 ([3]; Homo sapiens, KB 3-1): 9.22
pIC50 ([4]; Homo sapiens, HT-29): 9.30
IC90 ([4]; Homo sapiens, HT-29): 1.5 nM
pIC50 ([5]; Homo sapiens, MDA-MB-231): 9.30
IC90 ([5]; Homo sapiens, MDA-MB-231): 0.9 nM
pIC50 ([6]; Homo sapiens, HCT-116): 9.40
IC90 ([6]; Homo sapiens, HCT-116): 1.7 nM
pIC50 ([7]; Homo sapiens): 9.10
IC90 ([7]; Homo sapiens): 2.8 nM
pIC50 ([8]; Homo sapiens, RPMI-8226): 9.15
IC90 ([8]; Homo sapiens, RPMI-8226): 2.5 nM

Compound: COc1cc2c(=O)n(CCCN(C)C)c3c4cc5c(cc4ncc3c2cc1OC)OCO5 [Example 11, 8,9-Dimethoxy-2,3-methylenedioxy-5-[3-(N,N-dimethylamino)propyl]-5H-dibenzo[c,h]1,6-naphthyridin-6-one]
melting point: 262 to 264 °C (dec.)

Compound: COc1cc2c(=O)n(C(C)CN(C)C)c3c4cc5c(cc4ncc3c2cc1OC)OCO5 (stereo not shown) [Example 8, 8,9-Dimethoxy-2,3-methylenedioxy-5-[2-(N,N-dimethylamino)-1-methylethyl]-5H-dibenzo[c,h]1,6-naphthyridin-6-one]
melting point: 186 to 187 °C

Compound: COc1cc2c(=O)n(CCN(C)C)c3c4cc5c(cc4ncc3c2cc1OC)OCO5 [Compound 1]
pIC50 ([1]; Homo sapiens, NCI-H460): 8.64
IC90 ([1]; Homo sapiens, NCI-H460): 6.2 nM
pIC50 ([2]; Homo sapiens): 8.74
IC90 ([2]; Homo sapiens): 5.7 nM
IC90 ([3]; Homo sapiens, KB 3-1): 5.8 nM
pIC50 ([3]; Homo sapiens, KB 3-1): 8.74
pIC50 ([4]; Homo sapiens, HT-29): 8.89
IC90 ([4]; Homo sapiens, HT-29): 4.3 nM
pIC50 ([5]; Homo sapiens, MDA-MB-231): 9.52
IC90 ([5]; Homo sapiens, MDA-MB-231): 1.2 nM
pIC50 ([6]; Homo sapiens, HCT-116): 8.77
IC90 ([6]; Homo sapiens, HCT-116): 5.6 nM
pIC50 ([7]; Homo sapiens): 8.82
IC90 ([7]; Homo sapiens): 5.2 nM
pIC50 ([8]; Homo sapiens, RPMI-8226): 8.74
IC90 ([8]; Homo sapiens, RPMI-8226): 5.8 nM
